Laboratory results as given in ChEMBL document CHEMBL1201862, “PubChem BioAssay data set” (2004).
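Grown in 96-well plates, cells were treated for 48 hours with each compound at five concentrations. Insufficient inhibition: endpoint recorded as highest concentration tested. Here, GI50 denotes the concentration required for 50% inhibition of growth.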 Calls of active or inactive are those of the source. Cut-off read from the data, not from the text of the source: active = GI50 up to about 1.1 µM and inactive = higher.

Tests used:
Assay in all cases: DTP human tumour cell line panel, 48 h
[1] = system: RPMI-8226
[2] = system: SF-268
[3] = system: TK-10
[4] = system: SF-539
[5] = system: SNB-75
[6] = system: NCI-H23
[7] = system: HCC 2998
[8] = system: Malme-3M
[9] = system: U-251
[10] = system: HCT-116
[11] = system: CAKI-1
[12] = system: SK-MEL-28
[13] = system: HL-60
[14] = system: DU-145
[15] = system: MOLT-4
[16] = system: HOP-62
[17] = system: SK-OV-3
[18] = system: SK-MEL-2

Measured: GI50

COc1ccc2c(O)c(Oc3ccc(Cl)cc3)c(=O)oc2c1
inactive: [1] > 100 µM | [2] > 100 µM | [3] 78.3 µM | [4] > 100 µM | [5] 99.5 µM | [6] > 100 µM | [7] 75.7 µM | [8] 60.7 µM | [9] 53.5 µM | [10] > 100 µM | [11] 54.3 µM | [12] > 100 µM | [13] > 100 µM | [14] 90.4 µM | [15] > 100 µM | [16] > 100 µM

COCN/C(N)=N/C#N
inactive: [1] > 100 µM | [2] 85.9 µM | [3] > 100 µM | [4] > 100 µM | [5] > 100 µM | [17] > 100 µM | [6] > 100 µM | [7] > 100 µM | [8] > 100 µM | [9] 27.4 µM | [10] 75 µM | [11] > 100 µM | [12] > 100 µM | [13] > 100 µM | [18] > 100 µM | [15] > 100 µM | [16] > 100 µM

C1=c2ccccc2=C2C(=C(c3ccccc3)C(c3ccccc3)=NN2c2ccccc2)S1
inactive: [1] > 100 µM | [2] > 100 µM | [3] > 100 µM | [4] > 100 µM | [5] > 100 µM | [17] > 100 µM | [6] > 100 µM | [7] > 100 µM | [8] > 100 µM | [9] 46.7 µM | [10] > 100 µM | [11] > 100 µM | [12] > 100 µM | [13] > 100 µM | [18] > 100 µM | [15] > 100 µM | [16] > 100 µM

Nc1nc(SCC(=O)c2ccccc2)c2[nH]cnc2n1
inactive: [1] > 100 µM | [2] > 100 µM | [3] > 100 µM | [4] > 100 µM | [5] 21.9 µM | [17] > 100 µM | [6] > 100 µM | [7] > 100 µM | [8] > 100 µM | [9] > 100 µM | [10] > 100 µM | [11] > 100 µM | [12] > 100 µM | [13] > 100 µM | [18] > 100 µM | [15] > 100 µM | [16] > 100 µM

CCCCC[C@@H]1CCCC2NC(CCCCCO[Si](c3ccccc3)(c3ccccc3)C(C)(C)C)CCC21 (some centres undefined)
inactive: [1] 5.31 µM | [2] 17.9 µM | [3] 18.7 µM | [4] 15.2 µM | [5] 16 µM | [17] 21.8 µM | [6] 15.7 µM | [7] 11.2 µM | [8] 19.1 µM | [9] 14.1 µM | [10] 11.5 µM | [11] 15.4 µM | [12] 17.1 µM | [13] 8.71 µM | [18] 15.1 µM | [15] 12.6 µM | [16] 17.9 µM
